Data on 23 compounds can be found in patent US12084420B2, “Indoline compounds for inhibiting KIF18A” (Volastra Therapeutics, Inc., priority 2021, dated 2024).

The target in the test is hKIF18A (1-374) (Homo sapiens (Human), UniProt Q8NI77). The test is described as follows: Inhibition of KIF18A microtubule-dependent ATPase activity (ADP-Glo). As to conditions: KIF18A microtubule-dependent ATPase activity, biochemical assay.
Sequence of hKIF18A (1-374) (Q8NI77 whole entry, looked up): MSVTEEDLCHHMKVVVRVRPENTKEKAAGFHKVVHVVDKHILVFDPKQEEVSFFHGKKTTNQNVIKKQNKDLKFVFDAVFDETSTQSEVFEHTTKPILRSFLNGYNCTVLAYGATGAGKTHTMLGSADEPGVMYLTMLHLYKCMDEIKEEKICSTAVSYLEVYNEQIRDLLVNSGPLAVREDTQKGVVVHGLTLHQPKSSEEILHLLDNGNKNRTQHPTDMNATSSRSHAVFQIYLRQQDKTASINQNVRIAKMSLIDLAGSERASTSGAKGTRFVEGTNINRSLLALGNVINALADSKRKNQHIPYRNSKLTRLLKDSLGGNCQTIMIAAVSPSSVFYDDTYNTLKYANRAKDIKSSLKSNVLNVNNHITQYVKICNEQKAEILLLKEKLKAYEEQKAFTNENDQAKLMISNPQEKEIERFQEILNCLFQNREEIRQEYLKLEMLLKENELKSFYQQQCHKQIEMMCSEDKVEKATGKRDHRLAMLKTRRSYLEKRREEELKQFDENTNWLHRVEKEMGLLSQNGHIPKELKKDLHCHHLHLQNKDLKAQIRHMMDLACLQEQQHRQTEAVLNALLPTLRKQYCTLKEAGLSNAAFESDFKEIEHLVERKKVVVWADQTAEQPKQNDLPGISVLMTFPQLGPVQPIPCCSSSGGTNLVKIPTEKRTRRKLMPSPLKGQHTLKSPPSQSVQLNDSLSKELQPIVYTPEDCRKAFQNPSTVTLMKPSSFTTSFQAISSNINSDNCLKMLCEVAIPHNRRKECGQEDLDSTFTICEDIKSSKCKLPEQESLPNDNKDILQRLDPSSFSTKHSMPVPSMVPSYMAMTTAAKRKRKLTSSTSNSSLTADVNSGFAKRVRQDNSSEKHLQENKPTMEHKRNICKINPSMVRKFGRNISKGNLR
Sequence of hKIF18A (1-374) (Q2XVP4 whole entry partner, looked up): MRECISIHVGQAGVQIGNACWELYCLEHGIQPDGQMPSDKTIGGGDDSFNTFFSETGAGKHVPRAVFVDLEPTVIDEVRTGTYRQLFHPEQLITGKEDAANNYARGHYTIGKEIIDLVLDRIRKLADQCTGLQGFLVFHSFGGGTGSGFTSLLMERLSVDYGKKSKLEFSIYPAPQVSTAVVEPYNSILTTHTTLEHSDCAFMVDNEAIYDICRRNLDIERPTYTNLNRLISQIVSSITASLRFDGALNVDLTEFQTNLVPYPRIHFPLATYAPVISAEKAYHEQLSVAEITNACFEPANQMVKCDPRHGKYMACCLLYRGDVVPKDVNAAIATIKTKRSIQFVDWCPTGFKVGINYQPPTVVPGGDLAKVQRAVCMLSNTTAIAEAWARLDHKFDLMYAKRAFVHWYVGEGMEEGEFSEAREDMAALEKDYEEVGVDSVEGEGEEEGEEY
Sequence of hKIF18A (1-374) (P02554 whole entry partner, looked up): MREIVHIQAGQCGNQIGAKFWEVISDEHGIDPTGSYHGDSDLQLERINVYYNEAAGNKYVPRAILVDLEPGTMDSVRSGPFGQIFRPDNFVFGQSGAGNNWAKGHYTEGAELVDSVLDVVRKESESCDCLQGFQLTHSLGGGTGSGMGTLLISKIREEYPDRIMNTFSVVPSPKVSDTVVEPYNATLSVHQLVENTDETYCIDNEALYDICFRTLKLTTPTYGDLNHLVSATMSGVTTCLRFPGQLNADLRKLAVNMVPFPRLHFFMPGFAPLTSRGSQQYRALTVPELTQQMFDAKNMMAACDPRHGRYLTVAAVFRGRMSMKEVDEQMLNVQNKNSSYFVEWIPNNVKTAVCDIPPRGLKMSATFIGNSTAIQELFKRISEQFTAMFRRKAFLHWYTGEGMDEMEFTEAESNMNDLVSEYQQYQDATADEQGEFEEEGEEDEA
`CS(=O)(=O)Nc1ccc2c(c1)C1(CCCCC1)CN2C(=O)c1cccc(S(=N)(=O)C2CCCC2)c1` (centres unmarked) [Compound 49, N-(1′-(3-(cyclopentanesulfonamidoyl)benzoyl)spiro[cyclohexane-1,3′-indolin]-5′-yl)methanesulfonamide] had an IC50 of 0.13 µM. This counts as sub-micromolar.
`CS(=O)(=O)Nc1ccc2c(c1)C1(CCCCC1)CN2C(=O)c1cccc(S(=O)(=O)C2CCCC2)c1` [Compound 50, N-(1′-(3-(cyclopentylsulfonyl)benzoyl)spiro [cyclohexane-1,3′-indolin]-5′-yl)methanesulfonamide] had an IC50 of 0.072 µM. This IC50 lies about 1.8-fold lower than the previous one.
`CC(C)N(C)S(=O)(=O)c1cccc(C(=O)N2CC3(CCCCC3)c3cc(NS(C)(=O)=O)ccc32)c1` [Compound 55, N-isopropyl-N-methyl-3-(5′-(methylsulfonamido)spiro[cyclohexane-1,3′-indoline]-1′-carbonyl)benzenesulfonamide] registered an IC50 of 0.14 µM. Compared with the last compound, the IC50 is about 1.9-fold higher.
With `Cc1oc(C(=O)N2CC3(CCCCC3)c3cc(NS(C)(=O)=O)ccc32)cc1S(=O)(=O)NC(C)(C)C` [Compound 57, N-(tert-butyl)-2-methyl-5-(5′-(methylsulfonamido)spiro[cyclohexane-1,3′-indoline]-1′-carbonyl)furan-3-sulfonamide] the figure was 1.1 µM.
Turning to `CC(C)(C)NS(=O)(=O)c1ccc(C(=O)N2CC3(CCCCC3)c3cc(NS(C)(=O)=O)ccc32)s1` [Compound 60, N-(tert-butyl)-5-(5′-(methylsulfonamido)spiro[cyclohexane-1,3′-indoline]-1′-carbonyl)thiophene-2-sulfonamide], the IC50 is 1.2 µM.
The compound `CN=S(=O)(c1cccc(C(=O)N2CC3(CCCCC3)c3cc(NS(C)(=O)=O)ccc32)c1)C1CCCC1` (centres unmarked) [Compound 67, N-(1′-(3-(N-methylcyclopentanesulfonimidoyl)benzoyl)spiro[cyclohexane-1,3′-indolin]-5′-yl)methanesulfonamide] displayed an IC50 of 0.46 µM.
For `CC1CCN(S(=O)(=O)c2cccc(C(=O)N3CC4(CCCCC4)c4cc(NS(C)(=O)=O)ccc43)c2)C1` (centres unmarked) [Compound 71, N-(1′-(3-((3-methylpyrrolidin-1-yl)sulfonyl)benzoyl)spiro[cyclohexane-1,3′-indolin]-5′-yl)methanesulfonamide], the IC50 came to 0.086 µM.
The compound `CS(=O)(=O)Nc1ccc2c(c1)C1(CCCCC1)CN2C(=O)c1cccc(S(=O)(=O)N2CCC(F)C2)c1` (centres unmarked) [Compound 83, N-(1′-(3-((3-fluoropyrrolidin-1-yl)sulfonyl)benzoyl)spiro[cyclohexane-1,3′-indoline]-5′-yl)methanesulfonamide] yielded an IC50 of 0.13 µM.
Compound `CC(C)(C)NS(=O)(=O)c1cc(F)cc(C(=O)N2CC3(CCCCC3)c3cc(NS(C)(=O)=O)ccc32)c1` [Compound 95, N-(tert-butyl)-3-fluoro-5-(5′-(methylsulfonamido)spiro[cyclohexane-1,3′-indoline]-1′-carbonyl)benzenesulfonamide] came in with an IC50 of 0.17 µM. This IC50 and that of the compound before are within 1.5-fold of each other.
On to `CC(C)(C)NS(=O)(=O)c1cc(C(=O)N2CC3(CCCCC3)c3cc(NS(C)(=O)=O)ccc32)ccc1F` [Compound 96, N-(tert-butyl)-2-fluoro-5-(5′-(methylsulfonamido)spiro[cyclohexane-1,3′-indoline]-1′-carbonyl)benzenesulfonamide], for which the midpoint of inhibition, the IC50, lay at 0.1 µM.
As for `CC(C)(C)NS(=O)(=O)c1ccc(F)c(C(=O)N2CC3(CCCCC3)c3cc(NS(C)(=O)=O)ccc32)c1` [Compound 97, N-(tert-butyl)-4-fluoro-3-(5′-(methylsulfonamido)spiro[cyclohexane-1,3′-indoline]-1′-carbonyl)benzenesulfonamide], the IC50 worked out at 0.85 µM.
In the case of `CC1CN(S(=O)(=O)c2cccc(C(=O)N3CC4(CCCCC4)c4cc(NS(C)(=O)=O)ccc43)c2)CCO1` (centres unmarked) [Compound 107, N-(1′-(3-((2-methylmorpholino)sulfonyl)benzoyl)spiro[cyclohexane-1,3′-indolin]-5′-yl)methanesulfonamide], the IC50 was found to be 0.47 µM. This IC50 is about 1.8-fold lower than that of the compound before.
On to `CCOC(=O)Nc1ccc2c(c1)C1(CCCCC1)CN2C(=O)c1cccc(S(=O)(=O)N2CCCCC2)c1` [Compound 141, ethyl (1′-(3-(piperidin-1-ylsulfonyl)benzoyl)spiro[cyclohexane-1,3′-indolin]-5′-yl)carbamate], for which half-maximal inhibition (IC50) required 1.1 µM.
For `Cn1cc(S(=O)(=O)NC(C)(C)C)cc1C(=O)N1CC2(CCCCC2)c2cc(NS(C)(=O)=O)ccc21` [Compound 145, N-(tert-butyl)-1-methyl-5-(5′-(methylsulfonamido)spiro[cyclohexane-1,3′-indoline]-1′-carbonyl)-1H-pyrrole-3-sulfonamide], inhibition was half-maximal at 0.29 µM (IC50). Against the preceding compound, the IC50 is about 3.8-fold lower.
In turn, `CS(=O)(=O)Nc1ccc2c(c1)C1(CCCCC1)CN2C(=O)c1cccc(SC2CCCC2)c1` [Compound 146, N-(1′-(3-(cyclopentylthio)benzoyl)spiro[cyclohexane-1,3′-indolin]-5′-yl)methanesulfonamide] gave an IC50 of 0.19 µM.
As to `CC(C)(C)NS(=O)(=O)c1ccc(C(=O)N2CC3(CCCCC3)c3cc(NS(C)(=O)=O)ccc32)o1` [Compound 149, N-(tert-butyl)-5-(5′-(methylsulfonamido)spiro[cyclohexane-1,3′-indoline]-1′-carbonyl)furan-2-sulfonamide], the IC50 amounted to 0.078 µM.
Turning to `CC(C)(C)NS(=O)(=O)c1cccc(C(=O)N2C[C@]3(CC[C@@H](C(F)F)CC3)c3cc(NS(C)(=O)=O)ccc32)c1` [Compound 162b], 0.037 µM corresponded to half-maximal inhibition (IC50). This IC50 is about 2.1-fold lower than that of the compound before.
As for `CS(=O)(=O)Nc1ccc2c(c1)C1(CCC3(CC3)CC1)CN2C(=O)c1cccc(C(=O)C2CCCC2)c1` [Compound 164, N-(1″-(3-(cyclopentanecarbonyl)benzoyl)dispiro[cyclopropane-1,1′-cyclohexane-4′,3″- indolin]-5″-yl)methanesulfonamide], the IC50 was 0.12 µM.
The figure for `CS(=O)(=O)Nc1ccc2c(c1)C1(CCC3(CC3)CC1)CN2C(=O)c1cccc(C(O)C2CCCC2)c1` (centres unmarked) [Compound 165, N-(1″-(3-(cyclopentyl(hydroxy)methyl)benzoyl)dispiro[cyclopropane-1,1′-cyclohexane-4′,3″indolin]-5″- yl)methanesulfonamide] is 0.015 µM; for `O=C(c1cccc(S(=O)(=O)N2CCCCC2)c1)N1CC2(CCCCC2)c2cc(O)ccc21` [Compound 166, (5′-hydroxyspiro[cyclohexane-1,3′-indolin]-1′-yl)(3-(piperidin-1-ylsulfonyl)phenyl)methanone] it is 1.1 µM.
With `CCC(C)NS(=O)(=O)c1cccc(C(=O)N2CC3(CCC4(CC4)CC3)c3cc(NS(C)(=O)=O)ccc32)c1` (centres unmarked) [Compound 170, N-(sec-butyl)-3-(5″- (methylsulfonamido)dispiro[cyclopropane-1,1′-cyclohexane-4′,3″-indoline]-1″-carbonyl)benzenesulfonamide] the figure was 0.015 µM; with `CS(=O)(=O)Nc1ccc2c(c1)C1(CCC3(CC3)CC1)CN2C(=O)c1cccc(S(=O)(=O)NC2COC2)c1` [Compound 174, 3-(5″- (methylsulfonamido)dispiro[cyclopropane-1,1′-cyclohexane-4′,3″-indoline]-1″-carbonyl)-N-(oxetan-3-yl)benzenesulfonamide], 0.056 µM.
Turning to `CS(=O)(=O)Nc1ccc2c(c1)C1(CCC3(CC3)CC1)CN2C(=O)c1cccc(S(=O)(=O)NC2CCCC2)c1` [Compound 176, N-cyclopentyl-3-(5″- (methylsulfonamido)dispiro[cyclopropane-1,1″-cyclohexane-4′,3″-indoline]-1″-carbonyl)benzenesulfonamide], the IC50 is 0.0056 µM.
